We go through twelve compounds from patent publication US12528802B2, “Heterocyclic compound” (Takeda Pharmaceutical Company Limited, priority 2019, dated 2026).

The target of the assay is T1, glucosylceramide synthase (Homo sapiens, UniProt Q16739).
T1 construct: made in house; host or cells: Expi293F cells (transient expression, pcDNA3.3-TOPO vector); microsome fraction used as enzyme source
T1 sequence (Q16739 1-394): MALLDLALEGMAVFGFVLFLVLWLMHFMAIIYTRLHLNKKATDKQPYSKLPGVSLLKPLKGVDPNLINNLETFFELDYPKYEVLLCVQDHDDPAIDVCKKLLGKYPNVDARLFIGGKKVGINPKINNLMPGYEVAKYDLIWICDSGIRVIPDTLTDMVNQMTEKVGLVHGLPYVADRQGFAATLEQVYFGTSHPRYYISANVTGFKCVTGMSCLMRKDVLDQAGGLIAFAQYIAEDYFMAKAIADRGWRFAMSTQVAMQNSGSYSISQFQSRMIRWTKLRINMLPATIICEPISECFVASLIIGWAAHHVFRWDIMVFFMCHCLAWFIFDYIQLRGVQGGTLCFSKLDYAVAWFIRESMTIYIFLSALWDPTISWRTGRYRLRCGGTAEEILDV
Kind of assay: Glucosylceramide synthase (GCS) enzyme assay, microsome fraction, C8 glucosylceramide quantified by Rapidfire MS/MS. Type of assay: biochemical. To be noted: test compound 10 μM; 1.7 μM UDP-glucose, 3 μM C8 ceramide; room temperature 60 min; read-out: GCS enzyme inhibitory rate at 10 μM (%) (% of control). A digest of the protocol: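 Test compound, 10 μM final, was run against human GCS from transfected Expi293F microsome fractions, using substrate solution of 6 μM C8 ceramide (in DOPC liposomes) plus 3.4 μM UDP-glucose, pH 7.5 Tris buffer, 60 min, room temperature. Product C8 glucosylceramide measured by Rapidfire MS/MS against an internal standard, % inhibition referenced to no-enzyme and DMSO wells.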

With `Cc1cc2c(c(-c3ccccc3OCC(F)(F)F)n1)CN(c1ccc(C(C)(C)O)nc1)C2=O` [Example 326, 2-[6-(2-hydroxypropan-2-yl)pyridin-3-yl]-6-methyl-4-[2-(2,2,2-trifluoroethoxy)phenyl]-2,3-dihydro-1H-pyrrolo[3,4-c]pyridin-1-one], the inhibition at 10 µM is 99%. On to `COC1(c2ccc(N3Cc4c(ccnc4-c4ccc(F)cc4OCC(F)(F)F)C3=O)cc2)COC1` [Example 178, 4-[4-fluoro-2-(2,2,2-trifluoroethoxy)phenyl]-2-[4-(3-methoxyoxetan-3-yl)phenyl]-2,3-dihydro-1H-pyrrolo[3,4-c]pyridin-1-one], for which the inhibition at 10 µM worked out at 98%.

`N#CC1(c2ccc(N3Cc4c(ccnc4-c4ccccc4OCC(F)(F)F)C3=O)cc2)CC1` [Example 271, 1-(4-{1-oxo-4-[2-(2,2,2-trifluoroethoxy)phenyl]-1,3-dihydro-2H-pyrrolo[3,4-c]pyridin-2-yl}phenyl)cyclopropane-1-carbonitrile]: the inhibition at 10 µM amounted to 100%.

Turning to `COC(=O)c1ccc(-c2nccc3c2CN(c2ccc(F)cc2)C3=O)c(OC(F)F)c1` [Example 34, methyl 3-(difluoromethoxy)-4-[2-(4-fluorophenyl)-1-oxo-2,3-dihydro-1H-pyrrolo[3,4-c]pyridin-4-yl]benzoate], the inhibition at 10 µM was 83%. For the compound `O=C1c2ccnc(-c3ccc(F)cc3OCC(F)(F)F)c2CN1c1ccc(OCC(F)F)nc1` [Example 131, 2-[6-(2,2-difluoroethoxy)pyridin-3-yl]-4-[4-fluoro-2-(2,2,2-trifiuoroethoxy)phenyl]-2,3-dihydro-1H-pyrrolo[3,4-c]pyridin-1-one], the inhibition at 10 µM was 87%. With `O=C1c2ccnc(-c3ccc(F)cc3OCC(F)(F)F)c2CN1c1ccc(C2(O)CCOC2)cn1` (single isomer, unassigned) [Example 300, (R or S)-4-[4-fluoro-2-(2,2,2-trifluoroethoxy)phenyl]-2-[5-(3-hydroxyoxolan-3-yl)pyridin-2-yl]-2,3-dihydro-1H-pyrrolo [3,4-c]pyridin-1-one] the figure was 98%; with `O=C(c1ccc(N2Cc3c(ccnc3-c3ccc(F)cc3OCC(F)(F)F)C2=O)cc1)N1CCOCC1` [Example 152, 4-[4-fluoro-2-(2,2,2-trifluoroethoxy)phenyl]-2-[4-(morpholine-4-carbonyl)phenyl]-2,3-dihydro-1H-pyrrolo[3,4-c]pyridin-1-one], 90%.

For `O=C1c2ccnc(-c3ccc(F)cc3OCC(F)(F)F)c2CN1c1ccc(C2(O)CCOC2)c(F)c1` (racemic) [Example 223, rac-2-[3-fluoro-4-(3-hydroxyoxolan-3-yl)phenyl]-4-[4-fluoro-2-(2,2,2-trifluoroethoxy)phenyl]-2,3-dihydro-1H-pyrrolo[3,4-c]pyridin-1-one], the inhibition at 10 µM was 96%. The result for `CC(C)(O)C(F)(F)c1ccc(N2Cc3c(ccnc3-c3ccccc3OCC(F)(F)F)C2=O)cc1` [Example 340, 2-[4-(1,1-difluoro-2-hydroxy-2-methylpropyl)phenyl]-4-[2-(2,2,2-trifluoroethoxy)phenyl]-2,3-dihydro-1H-pyrrolo[3,4-c]pyridin-1-one] reads 99%; that for `CC(C)(O)COc1ccc(N2Cc3c(ccnc3-c3ccccc3OCC(F)F)C2=O)cc1` [Example 366, 4-[2-(2,2-difluoroethoxy)phenyl]-2-[4-(2-hydroxy-2-methylpropoxy)phenyl]-2,3-dihydro-1H-pyrrolo [3,4-c]pyridin-1-one], 99%; that for `O=C1c2ccnc(-c3ccc(F)cc3OCC(F)(F)F)c2CN1c1ccc(F)cn1` [Example 59, 2-(5-fluoropyridin-2-yl)-4-[4-fluoro-2-(2,2,2-trifluoroethoxy)phenyl]-2,3-dihydro-1H-pyrrolo[3,4-c]pyridin-1-one], 88%.

With `CC(C)n1cc(N2Cc3c(ccnc3-c3ccc(F)cc3OCC(F)(F)F)C2=O)cn1` [Example 97, 4-[4-fluoro-2-(2,2,2-trifluoroethoxy)phenyl]-2-[1-(propan-2-yl)-1H-pyrazol-4-yl]-2,3-dihydro-1H-pyrrolo[3,4-c]pyridin-1-one], the inhibition at 10 µM was 96%.
